# Read-outs that look alike come from different tables or passages of the source.
# Key:
# [1] = test system: Xenopus laevis testis explants (round spermatids); experiment: In vitro spermatid micronucleus assay (percent round spermatids with micronuclei in cultured testis explants); conditions: for relative in vitro clastogenic potency: day 30 micronucleus counts vs product of mutagen dose and exposure time (FIG. 7)
# [2] = test system: chromosome aberrations, meiotic prophase; conditions: male mouse; cited from earlier work
smiles,measurement,setting,value
"COc1cccc2c1C(=O)c1c(O)c3c(c(O)c1C2=O)C[C@@](O)(C(=O)CO)C[C@@H]3O[C@H]1C[C@H](N)[C@H](O)[C@H](C)O1 [AD, adriamycin]",concentration at which assay was sensitive to clastogenesis,"[1]; AD, 4 hr exposure, day 22, = 0.58 mg/L",10^-6 M
same,concentration at which assay was sensitive to clastogenesis,"[1]; AD, 4 hr exposure, day 30, = 58 μg/L",10^-7 M
same,increase in spermatid micronuclei,"[1]; AD, 4 hr exposure, days 22 and 30, unmodified XSCM (Table 6)",dose-dependent increase in spermatid micronuclei on both days 22 and 30
same,spermatocyte stages most sensitive to clastogenesis,"[1]; AD, 4 hrs exposure (Table 5)",leptotene (day 23) and premeiotic S or type B spermatogonia (day 30)
same,increase in spermatid micronuclei,"[1]; AD, 4 hrs exposure, each time point (Table 5)",dose-dependent increases in spermatid micronuclei at each time point examined
same,increase in assay sensitivity on increasing exposure,"[1]; AD, exposure increased from 4 hrs. to 12 hrs.",1.7 fold
"O=P1(N(CCCl)CCCl)NCCCO1 (stereo not shown) [CP, cyclophosphamide]",induction of chromosome aberrations,[2],induction of chromosome aberrations throughout meiotic prophase
same,Micronucleus %,[1],.15 +/- .06%
same,induction of spermatid micronuclei relative to concurrent controls,[1],did not result in a significant induction of spermatid micronuclei
same,Percent Round Spermatids With Micronuclei,"[1]; CP 10^-4 moles/L, 24 hr incubation, post-CP culture Day 2",.30 +/- .14%
same,Percent Round Spermatids With Micronuclei,"[1]; CP 10^-4 moles/L, 24 hr incubation, post-CP culture Day 5",.29 +/- .14%
same,Percent Round Spermatids With Micronuclei,"[1]; CP 10^-4 moles/L, 24 hr incubation, post-CP culture Day 8",.29 +/- .13%
same,Percent Round Spermatids With Micronuclei,"[1]; CP 10^-4 moles/L, 24 hr incubation, post-CP culture Day 21",.25 +/- .07%
same,Percent Round Spermatids With Micronuclei,"[1]; CP 10^-4 moles/L, 24 hr incubation, post-CP culture Day 29, p < .001",2.70 +/- .13%
same,Micronucleus %,"[1]; CP 10^-4 moles/L, 72 hr incubation, cultured 6 days after",.27 +/- .11%
same,Percent Round Spermatids With Micronuclei,"[1]; CP 10^-5 moles/L, 24 hr incubation, post-CP culture Day 2",.20 +/- .01%
same,Percent Round Spermatids With Micronuclei,"[1]; CP 10^-5 moles/L, 24 hr incubation, post-CP culture Day 5",.19 +/- .01%
same,Percent Round Spermatids With Micronuclei,"[1]; CP 10^-5 moles/L, 24 hr incubation, post-CP culture Day 8",.29 +/- .14%
same,Percent Round Spermatids With Micronuclei,"[1]; CP 10^-5 moles/L, 24 hr incubation, post-CP culture Day 15",.38 +/- .26%
same,Percent Round Spermatids With Micronuclei,"[1]; CP 10^-5 moles/L, 24 hr incubation, post-CP culture Day 21",.41 +/- .16%
same,Percent Round Spermatids With Micronuclei,"[1]; CP 10^-5 moles/L, 24 hr incubation, post-CP culture Day 29, P < .01",1.90 +/- .43%
same,Micronucleus %,"[1]; CP 10^-5 moles/L, 72 hr incubation, cultured 6 days after",.19 +/- .01%
same,Percent Round Spermatids With Micronuclei,"[1]; CP 10^-6 moles/L, 24 hr incubation, post-CP culture Day 2",.37 +/- .28%
same,Percent Round Spermatids With Micronuclei,"[1]; CP 10^-6 moles/L, 24 hr incubation, post-CP culture Day 5",.37 +/- .29%
same,Percent Round Spermatids With Micronuclei,"[1]; CP 10^-6 moles/L, 24 hr incubation, post-CP culture Day 8",.15 +/- .06%
same,Percent Round Spermatids With Micronuclei,"[1]; CP 10^-6 moles/L, 24 hr incubation, post-CP culture Day 15",.49 +/- .13%
same,Percent Round Spermatids With Micronuclei,"[1]; CP 10^-6 moles/L, 24 hr incubation, post-CP culture Day 21",.35 +/- .07%
same,Percent Round Spermatids With Micronuclei,"[1]; CP 10^-6 moles/L, 24 hr incubation, post-CP culture Day 29, p < .05",.99 +/- .01%
same,Micronucleus %,"[1]; CP 10^-6 moles/L, 72 hr incubation, cultured 6 days after",.14 +/- .06%
same,induction of spermatid micronuclei,"[1]; CP, 24 hr incubation, 29 days after exposure",dose-dependent increase in spermatid micronuclei
same,lowest effective dose (spermatid micronuclei),"[1]; CP, 24 hr incubation, 29 days after exposure, = […]",10^-6 M
same,increase in micronuclei in spermatids from pachytene through diplotene stages,"[1]; CP, 72 hr incubation, 6 days culture",did not result in significant increases in micronuclei
same,stage restriction of clastogenesis,"[1]; CP, cultured testes",restriction of CP clastogenesis to premeiotic stages
same,stage of cells affected (aberrations),"[1]; CP, in vitro exposure of testis explants",induces aberrations in cells that require 24 to 30 days to develop into round spermatids
same,relative in vitro clastogenic potency,[1],AD>CP>DMBA
"Cc1c2ccccc2c(C)c2c1ccc1ccccc12 [DMBA, 9,10-dimethyl-1,2-benzanthracene]",Percent Round Spermatids With Micronuclei,"[1]; DMBA 10^-4 moles/L, 24 hr incubation, post-DMBA culture Day 2",.16 +/- .04%
same,Percent Round Spermatids With Micronuclei,"[1]; DMBA 10^-4 moles/L, 24 hr incubation, post-DMBA culture Day 5",.15 +/- .06%
same,Percent Round Spermatids With Micronuclei,"[1]; DMBA 10^-4 moles/L, 24 hr incubation, post-DMBA culture Day 8",.17 +/- .05%
same,Percent Round Spermatids With Micronuclei,"[1]; DMBA 10^-4 moles/L, 24 hr incubation, post-DMBA culture Day 15",.48 +/- .12%
same,Percent Round Spermatids With Micronuclei,"[1]; DMBA 10^-4 moles/L, 24 hr incubation, post-DMBA culture Day 22",.28 +/- .12%
same,Percent Round Spermatids With Micronuclei,"[1]; DMBA 10^-4 moles/L, 24 hr incubation, post-DMBA culture Day 29, p < .001",1.07 +/- .14%
same,"fold increase in spermatid micronucleus frequency, 72 hr relative to 24 hr incubation","[1]; DMBA 10^-5 M (2.6 mg/L), culture day 30",3 fold
same,Percent Round Spermatids With Micronuclei,"[1]; DMBA 10^-5 moles/L, 24 hr incubation, post-DMBA culture Day 2",.19 +/- .01%
same,Percent Round Spermatids With Micronuclei,"[1]; DMBA 10^-5 moles/L, 24 hr incubation, post-DMBA culture Day 5",.16 +/- .06%
same,Percent Round Spermatids With Micronuclei,"[1]; DMBA 10^-5 moles/L, 24 hr incubation, post-DMBA culture Day 8",.39 +/- .28%
same,Percent Round Spermatids With Micronuclei,"[1]; DMBA 10^-5 moles/L, 24 hr incubation, post-DMBA culture Day 15",.20 +/- .001%
same,Percent Round Spermatids With Micronuclei,"[1]; DMBA 10^-5 moles/L, 24 hr incubation, post-DMBA culture Day 22",.48 +/- .13%
same,Percent Round Spermatids With Micronuclei,"[1]; DMBA 10^-5 moles/L, 24 hr incubation, post-DMBA culture Day 29, p < .01",.83 +/- .06%
same,Percent Round Spermatids With Micronuclei,"[1]; DMBA 10^-6 moles/L, 24 hr incubation, post-DMBA culture Day 2",.28 +/- .13%
same,Percent Round Spermatids With Micronuclei,"[1]; DMBA 10^-6 moles/L, 24 hr incubation, post-DMBA culture Day 5",.15 +/- .06%
same,Percent Round Spermatids With Micronuclei,"[1]; DMBA 10^-6 moles/L, 24 hr incubation, post-DMBA culture Day 8",.16 +/- .06%
same,Percent Round Spermatids With Micronuclei,"[1]; DMBA 10^-6 moles/L, 24 hr incubation, post-DMBA culture Day 15",.39 +/- .01%
same,Percent Round Spermatids With Micronuclei,"[1]; DMBA 10^-6 moles/L, 24 hr incubation, post-DMBA culture Day 22",.30 +/- .14%
same,Percent Round Spermatids With Micronuclei,"[1]; DMBA 10^-6 moles/L, 24 hr incubation, post-DMBA culture Day 29, p < .05",.68 +/- .01%
same,Percent Round Spermatids With Micronuclei,"[1]; DMBA 10^-7 moles/L, 24 hr incubation, 0.1% DMSO, post-DMBA culture Day 2, mean +/- s.d., n=2",.29 +/- .14%
same,Percent Round Spermatids With Micronuclei,"[1]; DMBA 10^-7 moles/L, 24 hr incubation, post-DMBA culture Day 5",.16 +/- .06%
same,Percent Round Spermatids With Micronuclei,"[1]; DMBA 10^-7 moles/L, 24 hr incubation, post-DMBA culture Day 8",.21 +/- .02%
same,Percent Round Spermatids With Micronuclei,"[1]; DMBA 10^-7 moles/L, 24 hr incubation, post-DMBA culture Day 15",.28 +/- .13%
same,Percent Round Spermatids With Micronuclei,"[1]; DMBA 10^-7 moles/L, 24 hr incubation, post-DMBA culture Day 22",.19 +/- .02%
same,Percent Round Spermatids With Micronuclei,"[1]; DMBA 10^-7 moles/L, 24 hr incubation, post-DMBA culture Day 29",.36 +/- .05%
same,increase in spermatid micronucleus frequency,"[1]; DMBA, 24 hr exposure",dose-dependent increase in the spermatid micronucleus frequency only after 29 additional days of culture
same,Percent Round Spermatids With Micronuclei,"[1]; Table 4: DMBA 10^-5 moles/L, 24 hr incubation, subsequent culture 29 days, P < .05",.86 +/- .10%
same,Percent Round Spermatids With Micronuclei,"[1]; Table 4: DMBA 10^-5 moles/L, 72 hr incubation, subsequent culture 27 days, P < .001",2.52 +/- .44%
same,relative in vitro clastogenic potency,[1],AD>CP>DMBA

# Reference: patent publication US4929542A, “In vitro screening test for mutagenicity and genotoxicity during spermatogenesis” (Cornell Research Foundation, Inc., priority 1987, dated 1990)
